Experimental data published in patent US20100105748A1, “METHODS AND COMPOSITIONS FOR TREATMENT OF DRUG ADDICTION” (priority 2007, published 2010).
Entries after “also recorded” stand apart in the source; their conditions may differ. Counter-ions that a name gives are not always drawn.

Assays:
[1] = test system: Dbh +/- and Dbh -/- mice; test: Elevated plus maze (EPM), cocaine-induced anxiety, Dbh mice; type: in vivo; details: for percent open arm time in EPM after cocaine (cocaine-induced anxiety): antagonist i.p. 10 min prior to cocaine 10 mg/kg i.p., propranolol 5, prazosin 0.5, yohimbine 2.5 mg/kg; for percent open time in EPM, antagonist alone: same doses, no cocaine, tested 20 minutes later, vs saline-treated; for percent open arm time in EPM after cocaine: disulfuram 3x200 mg/kg i.p. two hours apart, cocaine 10 mg/kg i.p. 20 min before test
Description: Male and female Dbh +/− and −/− mice (aged 2 to 5 months) were individually housed on a reversed light cycle (lights on at 19:00, lights off at 7:00), and were allowed a minimum of two weeks to habituate to the new lighting conditions after moving from normal light cycle (lights on at 7:00, lights off at 19:00). Food and water were available ad libitum throughout the course of the study. Data from male and female mice were combined, since there were no detectable gender differences. Dbh mice were generated as described (15) and maintained on a mixed C57Bl6/J and 129SvEv background. Dbh +/− mice were used as controls, because they have normal brain catecholamine levels and are behaviorally identical to wild-type (Dbh +/+) mice (14-16). Three-month old male and female C57BL6/J mice (Jackson Labs, Bar Harbor, […].) were also used to generalize the findings from these experiments to a different strain of wild-type mouse. Housing, handling, and testing conditions for these animals were identical to those used in experiments with Dbh +/− mice.
Behavioral testing The EPM apparatus consisted of two open arms and two enclosed arms arranged in a plus orientation. The arms were elevated 30 inches above the floor, with each arm projecting 12 inches from the center. Because rodents naturally prefer dark, enclosed compartments, a greater willingness to explore the open, well-lit arms is believed to represent a decrease in the animal's anxiety. This interpretation has been validated by the efficacy of known anxiolytic and anxiogenic treatments in this paradigm (Paine et al., (2002) Behavioural Pharmacol. 13: […]; Gorman & Dunn (1993) Pharmacol. Biochem. & Behavior 45: 1-7; Pellow et al., (1985) J. Neurosci. Methods 14: 149-167; Johnston & File (1988) Pharmacol. Biochem. & Behavior 32: 151-156).
In all experiments, cocaine was injected 20 minutes prior to behavioral testing as described by Yang and colleagues (Yang et al., (1992) Pharmacol. Biochem. & Behavior 41: 643-650). To begin each test, mice were placed in the EPM facing one of the open arms and allowed to freely explore the apparatus for five minutes, during which time their behavior was videotaped. Videotapes were later scored by an observer who was blind to genotype and treatment group. The measure used for analysis was the percentage of time spent exploring the open arms, which was calculated by dividing the time spent in the open arms by the combined time spent in open and closed arms. Because some drug treatments and genetic manipulations alter overall locomotor activity, it was important to use this percentage measurement as the dependent variable for analysis (Pellow et al., (1985) J. Neurosci. Methods 14: 149-167).
Entry into an arm of the plus maze was defined as the animal placing all four paws in that particular compartment of the apparatus. All tests were run during the dark cycle, between 14:00 and 18:00. Mice were excluded from data analysis for any of the following reasons: if they jumped or fell off the maze after test had begun, if they had […] a seizure while on the testing apparatus, or if their open arm time was detected as an outlier using Grubb's test. Of 253 total mice tested, 10 were excluded from data analysis. Data were analyzed using independent samples t-tests, one-way ANOVA followed by Dunnett's post-hoc tests, or two-way ANOVA followed by Bonferroni post-hoc tests using Prism 4.0 for Macintosh. […]
This dosing regimen is known to decrease NE by ˜70% in the mouse brain (Bourdelat-Parks et al., (2005) Psychopharmacol. 183(1): 72-80). Mice received cocaine (10 mg/kg, i.p. at 10 ml/kg, dissolved in 0.9% saline) or saline two hours after the final pretreatment injection, and behavioral testing took place 20 minutes later, as described above. […]

[2] = test system: C57BL6/J wild type mice; test: Elevated plus maze (EPM), cocaine-induced anxiety, wild type C57BL6/J mice; type: in vivo
Protocol: Behavioral testing The EPM apparatus consisted of two open arms and two enclosed arms arranged in a plus orientation. The arms were elevated 30 inches above the floor, with each arm projecting 12 inches from the center. Because rodents naturally prefer dark, enclosed compartments, a greater willingness to explore the open, well-lit arms is believed to represent a decrease in the animal's anxiety. […]
In all experiments, cocaine was injected 20 minutes prior to behavioral testing as described by Yang and colleagues (Yang et al., (1992) Pharmacol. Biochem. & Behavior 41: 643-650). […] Videotapes were later scored by an observer who was blind to genotype and treatment group. The measure used for analysis was the percentage of time spent exploring the open arms, which was calculated by dividing the time spent in the open arms by the combined time spent in open and closed arms. […]
Entry into an arm of the plus maze was defined as the animal placing all four paws in that particular compartment of the apparatus. […] Mice were excluded from data analysis for any of the following reasons: if they jumped or fell off the maze after test had begun, if they had […] a seizure while on the testing apparatus, or if their open arm time was detected as an outlier using Grubb's test. […]

[3] = test system: rats; details: rats / rodents; cited from earlier work
[4] = test system: mice; test: Cocaine-induced locomotion (ambulations in activity chambers); type: in vivo
Protocol: Locomotor activity measurement: Experiments were conducted in an isolated behavior room between 1000 and 1600 hrs. Ambulations (consecutive beam breaks) were measured in transparent plexiglass cages (40×20×20 cm^3) placed into a rack with seven infrared photobeams spaced 5 cm apart, each end beam 5 cm from the cage wall (San Diego Instruments Inc., LaJolla, Calif.). Mice were placed in the activity chambers for 4 hr, injected with cocaine (5, 10, or 20 mg/kg i.p.; Sigma-Aldrich, St Louis, Mo.), and ambulations were recorded for an additional 2 hr. Data were analyzed by ANOVA followed by Bonferroni post-hoc tests. For the antagonist studies, saline, the 5-HT1A antagonist WAY100635 (0.03 mg/kg), the 5-HT2 antagonist ketanserin (0.3 mg/kg), the D1 antagonist SCH23390 (0.03 mg/kg), or the D2 antagonist eticlopride were injected i.p. 30 min prior to cocaine (20 mg/kg). […] All drugs were purchased from Sigma-Aldrich (St Louis, Mo.).
Mice were implanted with minipumps for delivering either vehicle (50% DMSO, 0.9% NaCl or nepicastat (10 or 50 mg/kg/d). 3 weeks later, the mice were put in activity chambers, allowed to acclimate for 4 hrs, then injected with cocaine (10 mg/kg, i.p.) and ambulations measured for 2 additional hours, as shown in FIG. 8 (N=6 per group).
Two hours later, the mice were put in activity chambers, allowed to acclimate for 4 hrs, injected with cocaine (20 mg/kg, i.p.) and ambulations measured for 2 additional hours. (FIG. 9) (N=8 per group).

[5] = target: T1, DBH (Homo sapiens, UniProt P09172); parameters: host or cells: human subjects, in vivo; details: humans; cited from earlier work
T1 sequence (P09172 1-617): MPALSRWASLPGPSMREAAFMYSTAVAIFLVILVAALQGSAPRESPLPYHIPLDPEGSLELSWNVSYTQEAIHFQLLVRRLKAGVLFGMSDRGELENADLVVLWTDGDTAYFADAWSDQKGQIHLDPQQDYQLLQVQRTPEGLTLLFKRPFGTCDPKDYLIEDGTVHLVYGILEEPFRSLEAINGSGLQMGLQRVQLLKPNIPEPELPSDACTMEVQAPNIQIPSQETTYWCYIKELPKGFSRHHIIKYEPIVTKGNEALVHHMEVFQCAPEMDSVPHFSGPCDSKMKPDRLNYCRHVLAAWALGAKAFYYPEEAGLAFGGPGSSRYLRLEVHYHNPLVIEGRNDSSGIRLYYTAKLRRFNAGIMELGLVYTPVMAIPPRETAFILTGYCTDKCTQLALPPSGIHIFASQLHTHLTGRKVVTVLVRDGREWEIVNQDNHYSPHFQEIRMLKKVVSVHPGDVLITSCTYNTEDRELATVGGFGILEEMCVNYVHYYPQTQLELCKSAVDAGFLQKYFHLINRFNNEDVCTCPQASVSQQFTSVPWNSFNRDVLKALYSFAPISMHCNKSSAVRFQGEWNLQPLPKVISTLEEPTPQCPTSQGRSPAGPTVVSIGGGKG

[6] = test system: DBH; details: animals; cited from earlier work
[7] = target: T2, DBH (Mus musculus, UniProt Q64237); details: three injections of 200 mg/kg i.p. spaced two hours apart; cited from earlier work
T2 construct: host or cells: peripheral and central tissues of animals, in vivo
T2 sequence (Q64237 1-622): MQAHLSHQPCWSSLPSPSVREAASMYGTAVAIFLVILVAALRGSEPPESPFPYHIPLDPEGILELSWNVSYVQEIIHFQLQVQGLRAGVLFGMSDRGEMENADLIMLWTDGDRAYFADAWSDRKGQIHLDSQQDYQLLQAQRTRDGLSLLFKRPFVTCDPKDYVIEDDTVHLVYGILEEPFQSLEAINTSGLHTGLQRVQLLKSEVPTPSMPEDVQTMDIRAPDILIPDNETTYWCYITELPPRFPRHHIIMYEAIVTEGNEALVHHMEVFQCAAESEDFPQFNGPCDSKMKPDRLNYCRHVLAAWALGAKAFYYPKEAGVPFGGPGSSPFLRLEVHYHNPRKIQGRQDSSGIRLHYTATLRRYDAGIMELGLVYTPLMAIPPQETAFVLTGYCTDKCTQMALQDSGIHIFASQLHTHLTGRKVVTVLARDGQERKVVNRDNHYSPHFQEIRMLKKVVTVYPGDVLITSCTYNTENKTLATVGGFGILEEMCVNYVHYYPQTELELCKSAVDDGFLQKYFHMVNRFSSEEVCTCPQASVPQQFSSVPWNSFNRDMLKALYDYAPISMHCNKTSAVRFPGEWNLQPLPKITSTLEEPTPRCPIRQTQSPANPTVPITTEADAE

[8] = test system: animal models; details: cited from earlier work
[9] = target: T1, DBH; details: cited from earlier work

CC(C)NCC(O)COc1cccc2ccccc12 (stereo not drawn) [propranolol]
percent open arm time in EPM after cocaine (cocaine-induced anxiety) [1]: abolished; also recorded: differed significantly from the control group; also recorded: attenuates cocaine-induced anxiety
percent open time in EPM, antagonist alone [1]: no significant effect
percent open arm time in EPM after cocaine (cocaine-induced anxiety) ([2]; propranolol 5 mg/kg i.p. 10 min prior to cocaine 20 mg/kg i.p.): blocked; also recorded: attenuates cocaine-induced anxiety
baseline EPM performance ([2]; propranolol 5 mg/kg i.p., saline instead of cocaine): no effect

S=C(Nc1ccccc1)Nc1nccs1 [U-14,624]
reinstatement of amphetamine self-administration [3]: block

COC(=O)[C@@H]1[C@H]2C[C@H]3c4[nH]c5ccccc5c4CCN3C[C@@H]2CC[C@@H]1O [yohimbine]
percent open arm time in EPM after cocaine (cocaine-induced anxiety) [1]: preserved; also recorded: did not
percent open time in EPM, antagonist alone [1]: no significant effect

COc1cc2nc(N3CCN(C(=O)c4ccco4)CC3)nc(N)c2cc1OC [prazosin]
percent open arm time in EPM after cocaine (cocaine-induced anxiety) [1]: preserved; also recorded: did not
percent open time in EPM, antagonist alone [1]: no significant effect

CCN(CC)C(=S)SSC(=S)N(CC)CC [disulfuram, tetraethylthiuram]
percent open arm time in EPM after cocaine [1]: attenuates cocaine-induced anxiety
percent open arm time in EPM after cocaine ([1]; listed as Disulfuram): abolished the ability of cocaine to reduce open arm exploration time; also recorded: significantly increased level of open arm exploration
percent open arm time in EPM, saline instead of cocaine ([1]; disulfuram 3x200 mg/kg i.p., saline prior to testing): no effect
locomotion induced by cocaine ([4]; disulfuram via osmotic minipump 50 mg/kg/day for 2 to 3 weeks, cocaine 10 mg/kg, cocaine-naive animals): decreased
reinstatement of amphetamine self-administration [3]: attenuates; also recorded: block
NE and its metabolites in urine, blood, and cerebrospinal fluid [5]: decreases
dopamine (DA) in peripheral and central tissues [6]: increase dopamine (DA)
norepinepherine (NE) in peripheral and central tissues [6]: decrease norepinepherine (NE)
decrease of NE in the mouse brain [7]: ~70%
cocaine sensitization [8]: enhances cocaine sensitization
locomotor response to acute administration of amphetamine [8]: decreases
locomotor response to acute administration of cocaine [8]: decreases
IC50 for DBH [9]: low micromolar range

NCc1c[nH]c(=S)n1[C@H]1CCc2c(F)cc(F)cc2C1 [nepicastat, S-5-amino methyl-1-(5,7-difluoro-1,2,3,4-tetrahydronapthalyl)-1,3-dihydroimidazole-2-thione hydrochloride]
locomotion induced by cocaine ([4]; prolonged (3 weeks) minipump treatment with 10 or 50 mg/kg/day, cocaine 10 mg/kg i.p., FIG. 8): significantly increased
cocaine-induced locomotion ([4]; single acute dose 50 mg/kg i.p., cocaine 20 mg/kg i.p., FIG. 9, hydrochloride): did not significantly affect; also recorded: does not significantly affect
